# Reference: ChEMBL document CHEMBL1146531, “Steroidal saponins from the bark of Dracaena draco and their cytotoxic activities” (J Nat Prod, 2003)
# Active and inactive are the calls of the source. No cut-off for these calls is given here.
# Key:
# HL-60 [1] = assay: Cytotoxicity against human HL60 cells after 72 hrs by MTT assay; format: functional, cell-based; conditions: HL-60, 72 h
# HL-60 [2] = assay: Induction of apoptosis in human HL60 cells assessed as apoptotic cells at 30 uM after 12 hrs measured by morphological change; format: functional
# HL-60 [3] = assay: Induction of apoptosis in human HL60 cells assessed as PARP cleavage at 30 uM after 12 hrs by Western blot analysis; format: functional, cell-based
# U-937 = assay: Cytotoxicity against human U937 cells; format: functional, cell-based
# HL-60 [4] = assay: Cytotoxicity against human HL60 cells after 48 hrs by MTT assay; format: functional, cell-based
Compound,IC50 (HL-60 [1]) [µM],Activity (HL-60 [2]) [%],other results
C[C@@H]1CC[C@@]2(OC1)O[C@H]1C[C@H]3[C@@H]4CC=C5C[C@@H](O[C@@H]6O[C@H](CO)[C@@H](O[C@@H]7O[C@@H](C)[C@H](O)[C@@H](O)[C@H]7O)[C@H](O)[C@H]6O)CC[C@]5(C)[C@H]4CC[C@]3(C)[C@H]1[C@@H]2C,> 100,–,–
CO[C@]1(CC[C@@H](C)CO[C@@H]2O[C@H](CO)[C@@H](O)[C@H](O)[C@H]2O)O[C@H]2C[C@H]3[C@@H]4CC=C5C[C@@H](O[C@@H]6O[C@H](CO)[C@@H](O)[C@H](O[C@@H]7O[C@H](CO)[C@@H](O)[C@H](O)[C@H]7O)[C@H]6O[C@@H]6O[C@@H](C)[C@H](O)[C@@H](O)[C@H]6O)CC[C@]5(C)[C@H]4CC[C@]3(C)[C@H]2[C@@H]1C,7.2,–,–
C=C1CO[C@@]2(O[C@H]3C[C@H]4[C@@H]5CC=C6C[C@@H](O)C[C@@H](O[C@@H]7OC[C@H](O)[C@H](O)[C@H]7O[C@@H]7O[C@@H](C)[C@H](OC(C)=O)[C@@H](O)[C@H]7O)[C@]6(C)[C@H]5CC[C@]4(C)[C@H]3[C@@H]2C)[C@@H](O)[C@H]1O,> 100,–,–
C[C@@H]1CC[C@@]2(OC1)O[C@H]1C[C@H]3[C@@H]4CC=C5C[C@@H](O[C@@H]6O[C@H](CO)[C@@H](O[C@@H]7O[C@@H](C)[C@H](O)[C@@H](O)[C@H]7O)[C@H](O)[C@H]6O[C@@H]6O[C@@H](C)[C@H](O)[C@@H](O)[C@H]6O)CC[C@]5(C)[C@H]4CC[C@]3(C)[C@H]1[C@@H]2C [DIOSCIN],2,–,–
C=C1CO[C@@]2(O[C@H]3C[C@H]4[C@@H]5CC=C6C[C@@H](O)C[C@@H](O[C@@H]7OC[C@H](O)[C@H](O)[C@H]7O[C@@H]7O[C@@H](C)[C@H](OC(C)=O)[C@@H](OC(C)=O)[C@H]7OC(C)=O)[C@]6(C)[C@H]5CC[C@]4(C)[C@H]3[C@@H]2C)[C@@H](O)[C@H]1O [DRACONIN A],9.7,35.1,Activity (HL-60 [3]): Dose-dependent effect; IC50 (U-937): 6.8 µM
C=C1CO[C@@]2(O[C@H]3C[C@H]4[C@@H]5CC=C6C[C@@H](O)C[C@@H](O[C@@H]7OC[C@H](O)[C@H](O)[C@H]7O[C@@H]7O[C@@H](C)[C@H](O)[C@@H](OC(C)=O)[C@H]7OC(C)=O)[C@]6(C)[C@H]5CC[C@]4(C)[C@H]3[C@@H]2C)[C@@H](O)[C@H]1O [DRACONIN B],39,9.4,–
C=C1CO[C@@]2(O[C@H]3C[C@H]4[C@@H]5CC=C6C[C@@H](O)C[C@@H](O[C@@H]7OC[C@H](O)[C@H](O)[C@H]7O[C@@H]7O[C@@H](C)[C@H](O)[C@@H](O)[C@H]7OC(C)=O)[C@]6(C)[C@H]5CC[C@]4(C)[C@H]3[C@@H]2C)[C@@H](O)[C@H]1O [DRACONIN C],> 100,5,–
C[C@@H]1CC[C@@]2(OC1)O[C@H]1C[C@H]3[C@@H]4CC=C5C[C@@H](O[C@@H]6O[C@H](CO)[C@@H](O)[C@H](O[C@@H]7O[C@H](CO)[C@@H](O)[C@H](O)[C@H]7O)[C@H]6O[C@@H]6O[C@@H](C)[C@H](O)[C@@H](O)[C@H]6O)CC[C@]5(C)[C@H]4CC[C@]3(C)[C@H]1[C@@H]2C [GRACILLIN],3.7,–,–
CO[C@]1(CC[C@@H](C)CO[C@@H]2O[C@H](CO)[C@@H](O)[C@H](O)[C@H]2O)O[C@H]2C[C@H]3[C@@H]4CC=C5C[C@@H](O[C@@H]6O[C@H](CO)[C@@H](O[C@@H]7O[C@@H](C)[C@H](O)[C@@H](O)[C@H]7O)[C@H](O)[C@H]6O[C@@H]6O[C@@H](C)[C@H](O)[C@@H](O)[C@H]6O)CC[C@]5(C)[C@H]4CC[C@]3(C)[C@H]2[C@@H]1C [METHYLPROTODIOSCIN],7.3,–,Activity (HL-60 [4]): Active
